Measurements from US8716296B2 (Ingenium Pharmaceuticals GmbH, priority 2007, dated 2014).

How the values were obtained:
[1] = system: LPS induced THP-1 macrophages; assay: In vitro THP-1 assay, model of cytokine inhibition; assay type: cell-based, human; details: differentiated THP-1 cells, 60 min pre-incubation, LPS 4-48 h, ELISA, versus vehicle (DMSO)
Protocol: The human THP-1 cell line can be utilized as an in vitro model of cytokine expression as mediated by Lipopolysaccharide (LPS) or Tumor Necrosis Factorα [TNFα].
Monocytic THP-1 cells (ATCC; TIB-202) can be differentiated into macrophage-like cells expressing pro-inflammatory cytokines like TNFα, IL6 and IL1β upon induction with LPS or by TNFα (autocrine induction) itself.
THP-1 cells are grown in modified RPMI-1640 medium (ATCC, Cat. No. 30-2001) supplemented with 10% FCS and 1% Pen/Strep. For cytokine inhibition assays, cells are seeded at a density of 5×10^5 cells/ml into 6-well plates in standard growth medium supplemented with 100 ng/ml PMA (Sigma, P1585) to induce differentiation into macrophage-like cells. After 24 hours, the medium is replaced with standard growth medium (without PMA) and the cells are incubated for another 48 hours to complete differentiation.
After 72 h of differentiation, the medium is replaced with serum free growth medium, and CDK-inhibiting compounds as well as reference compounds such as positive and negative controls, each dissolved in DMSO are added at concentrations ranging from 0.5 to 5 μM (final concentration of DMSO in the well is 0.1%). Cells are incubated for 60 min with compounds prior to stimulation with 100 ng/ml LPS (Sigma, L2630) for another 4-48 hours. Supernatants are collected and assayed immediately for cytokine expression, e.g. for TNFα, IL-6 and IL-1b using commercially available sandwich ELISA assays (eBioscience, Cat. No 88-7346, 88-7066, 88-7010) or kept frozen at […] until evaluation.
Concentrations of TNFα, IL6 and IL1β within the cell culture supernatants are measured by using commercial ELISA Kits (eBioscience) according to the manufacturers instructions.
CDK-inhibitory compounds #1A, 16A, 20A, and 25A were administered to differentiated THP-1 cells in triplicates as described above (see section 2.). After 60 min of pre-incubation with test or reference compound (SB203580, a p38 inhibitor and BMS345541, an IKK-inhibitor) alone, cells were stimulated with LPS. After incubation for 4-48 h, supernatants were collected and ELISA based determinations of cytokine supernatant concentrations were performed as described in section 3, supra.

LPS induced mice = assay: LPS in vivo assay, model of cytokine repression in vivo; design: species or system mice (strain C3HeB/FeJ); details: 10 or 30 mg/kg i.p. 30 min prior to LPS, blood 90 min after LPS, ELISA, versus vehicle
Protocol: For the LPS induced model of septic shock, mice receive an intraperitoneal (i.p.) injection of 30 μg bacterial Lipopolysaccharide (LPS; L2630 SIGMA) in saline. Said LPS-mediated initiation of the inflammatory signalling cascade results in increasing blood serum concentrations of cytokines such as e.g. TNFα, IL-6 and IL1β. Blood can be taken from these animals at defined time points. Thereafter, serum will be separated and the samples can be stored at −80° C. until cytokine concentrations are measured using commercial ELISA assays. (A L Moreira et al., Braz J Med Biol Res 1997; 30:1199-1207).
Wildtype mice (strain C3HeB/FeJ) (age, sex and weight matched) were injected with 30 μg LPS (SIGMA) intraperitoneally. 90 minutes after LPS administration these animals were anaesthetized with 0.1 m1/10 g bodyweight Ketamine-Rompun (50/20 mg/ml), and blood for serum preparation was taken via cardiac puncture.
Pharmacological treatment groups (n=4) of LPS mice received intraperitoneal (i. p.) injections of CDK-inhibiting compounds or the vehicle (negative control), respectively. In particular, compounds #1A and 16A were administered.
10 or 30 mg/kg (compound per bodyweight) of a CDK inhibitor, dissolved in 20% DMSO, 5% Tween 80, 10% Tris 1M pH8, 20% PEG400, 45% PBS was administered as a single dosage 30 min prior to LPS stimulation. Vehicle control was administered in the same manner.
90 minutes (min) after LPS stimulation, blood samples were taken from the mice. Previously, the 90 min time point had been identified as the peak of TNF alpha expression in this animal model by a time course experiment.
Blood samples (˜500 μl/animal) from the LPS animals were incubated on wet ice for 30 min after cardiac puncture. Afterwards the samples were centrifuged for 15 min at 13.000 rpm. Serum was separated from the clot and stored frozen at −80° C.
Serum concentrations of TNF alpha and IL6 within the samples were measured by using commercial ELISA Kits (Natutec) according to the manufacturers instructions.

SNI mice = assay: Spared nerve injury (SNI) model of chronic neuropathic pain, von Frey assay; assay type: in vivo, mice (strain C3HeB/FeJ); details: 30 mg/kg p.o., 30 min before measurement, day 107 post SNI, versus vehicle
From the text: As outlined above, the spared nerve injury (SNI) model (see FIG. 1) involves a lesion of two of the three terminal branches of the sciatic nerve (tibial and common peroneal nerves) of experimental animals, leaving the sural nerve intact. SNI results in mechanical and thermal allodynia in the non-injured sural nerve skin territory (Decosterd and Woolf, Pain 2000; 87:149-158. (2) Tsujino et al., Mol. Cel. Neurosci. 2000; 15:170-182).
Wildtype mice (strain C3HeB/FeJ) (age, sex and weight matched) were anesthetized with Hypnorm (0.315 mg/ml fentanyl citrate+10 mg/ml fluanisone; Janssen)/Hypnovel (5 mg/ml midazolam; Roche Applied Sciences)/water at a ratio of 1:1:2 at 4 μl/g prior to surgical preparation. […]
30 mg/kg of a CDK inhibitor, dissolved in 400 μl of 2% Hydroxprolylcellulose; 0.25% Lactic Acid (85% solution) was administered via per oral application 30 min prior to von Frey measurements (mechanical allodynia). […] Reflex nociceptive responses to mechanical stimulation were measured in a von Frey assay 30 min after each injection. […]
Mechanical thresholds of SNI mice were quantified using the up-down method based on Chaplan et al. (1994) and Malmberg and Basbaum (1998). […]

SMILES	IL6 protein concentration in the cell supernatant [1]	TNFα protein concentration in the cell supernatant [1]	IL6 protein concentration in the blood serum (LPS induced mice)	TNFα protein concentration in the blood serum (LPS induced mice)	paw withdrawal threshold to mechanical stimulation (von Frey) (SNI mice)
CCOc1ccccc1-c1cc(NC(=O)C2CCNCC2)ncn1 [Compound 1A, Piperidine-4-carboxylic acid [6-(2-ethoxy-phenyl)-pyrimidin-4-yl]-amide]	significant inhibitory effect	significant inhibitory effect	significant repressive effect	significant repressive effect	
COc1ccccc1-c1cc(NC(=O)C2CCCNC2)ncn1 (stereo not drawn) [Compound 16A, Piperidine-3-carboxylic acid [6-(2-methoxy-phenyl)-pyrimidin-4-yl]amide]	significant inhibitory effect	significant inhibitory effect	significant repressive effect	significant repressive effect	significant increase of threshold values
